Test results from patent US4324800A, “Novel benzylalcohol derivatives and processes for preparing same” (Tanabe Seiyaku Co., Ltd., priority 1980, dated 1982).

Test system: ventricular contractile force
Test: Ventricular contractile force in anesthetized open-chest dogs (strain gauge on left ventricle), i.v. injection into left saphenous vein
Assay type: in vivo
Details: for ED (30% increase): Canis lupus familiaris, iv, male dogs, anesthetized, injected into left saphenous vein, read-out: Dose which induces about 30% increase in the ventricular contractile force; for t 1/2: period of time in decreasing the cardiac contractile force to 50% of its maximum value: male dogs 11 to 13 kg, sodium pentobarbital anesthesia, i.v., dose inducing about 30% increase in ventricular contractile force, ± S.E.
Procedure: Male dogs weighing about 11 to 13 kg were anesthetized with sodium pentobarbital (30 mg/kg, i.v.). Under artificial respiration, the heart was exposed by thoractomy, and a calibrated strain gauge was attached to the wall of the left ventricle for oscillographical measurement of the ventricular contractile force. The heart rate was recorded by cardiotachography, triggered by arterial pulse. A test compound was injected into the left saphenous vein at a dose which induces about 30% increase in the ventricular contractile force.
*:Period of time in decreasing the cardiac contractile force to 50% of it

COc1ccc(CCNCC(O)c2ccc(OC(=O)c3ccccc3)cc2)cc1OC (stereo not drawn) [α-(3,4-dimethoxyphenethylaminomethyl)-4-benzoyloxybenzylalcohol]
ED (30% increase): 0.039 mg/kg
t 1/2: period of time in decreasing the cardiac contractile force to 50% of its maximum value: 24.22 ± 0.717 min

COc1ccc(CCNCC(O)c2ccc(OC(=O)c3ccc(C)cc3)cc2)cc1OC (stereo not drawn) [α-(3,4-dimethoxyphenethylaminomethyl)-4-p-toluoyloxybenzylalcohol]
ED (30% increase): 0.04 mg/kg
t 1/2: period of time in decreasing the cardiac contractile force to 50% of its maximum value: 24.92 ± 0.417 min

COc1ccc(CCNCC(O)c2ccc(OC(=O)C(C)(C)C)cc2)cc1OC (stereo not drawn) [α-(3,4-dimethoxyphenethylaminomethyl)-4-pivaloyloxybenzylalcohol]
ED (30% increase): 0.037 mg/kg
t 1/2: period of time in decreasing the cardiac contractile force to 50% of its maximum value: 20.53 ± 1.18 min
